From article PMC7597557 (PLoS Pathogens, 2020)
Peptide text beside a SMILES is read from it.

Legend:
[1] = target: T1, H-2 K^b (Mus musculus, UniProt P01901); assay: RMA-S K^b stabilization assay
T1 sequence (P01901 22-369): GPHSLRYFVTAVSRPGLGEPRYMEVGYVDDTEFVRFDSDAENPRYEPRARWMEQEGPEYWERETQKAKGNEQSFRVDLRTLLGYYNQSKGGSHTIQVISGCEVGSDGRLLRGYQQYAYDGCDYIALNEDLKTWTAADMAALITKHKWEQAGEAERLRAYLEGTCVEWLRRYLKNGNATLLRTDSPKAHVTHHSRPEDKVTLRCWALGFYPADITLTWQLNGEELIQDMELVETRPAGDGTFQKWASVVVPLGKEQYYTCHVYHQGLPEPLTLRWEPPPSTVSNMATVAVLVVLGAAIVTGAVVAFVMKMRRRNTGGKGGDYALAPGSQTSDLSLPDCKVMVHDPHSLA
T1 sequence (P01887 21-119 partner): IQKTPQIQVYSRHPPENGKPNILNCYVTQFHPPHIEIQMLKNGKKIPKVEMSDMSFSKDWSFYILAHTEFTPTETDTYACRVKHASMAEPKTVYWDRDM

[2] = C57BL/6J mice, 37C, up to 60 minutes

Compound | IC50 [1] [µM] | also measured
CC[C@H](C)[C@H](N)C(=O)N[C@@H](CCSC)C(=O)N[C@@H](Cc1ccc(O)cc1)C(=O)N[C@@H](CC(N)=O)C(=O)N[C@@H](Cc1ccc(O)cc1)C(=O)N1CCC[C@H]1C(=O)N[C@H](C(=O)N[C@@H](CCSC)C(=O)O)C(C)C [A10V] (H-IMYNYPVM-OH) | 21.3 | –
CC[C@H](C)[C@H](NC(=O)[C@@H](NC(=O)[C@@H](N)CO)[C@@H](C)CC)C(=O)N[C@@H](CC(N)=O)C(=O)N[C@@H](Cc1ccccc1)C(=O)N[C@@H](CCC(=O)O)C(=O)N[C@@H](CCCCN)C(=O)N[C@@H](CC(C)C)C(=O)O [reference compound] | 7.32 | –
IMANAPAM | – | Stabilization of K^b (in words) ([1]; RMA-S cells, surface K^b by flow cytometry, negative control peptide): failed to stabilize K^b
CC[C@H](C)[C@H](N)C(=O)N[C@@H](CCSC)C(=O)N[C@@H](Cc1ccc(O)cc1)C(=O)N[C@@H](CC(N)=O)C(=O)N[C@@H](Cc1ccc(O)cc1)C(=O)N[C@@H](CO)C(=O)N[C@@H](C)C(=O)N[C@@H](CCSC)C(=O)O [P9S] (H-IMYNYSAM-OH) | 59.3 | –
CC[C@H](C)[C@H](N)C(=O)N[C@@H](CCSC)C(=O)N[C@@H](Cc1ccc(O)cc1)C(=O)N[C@@H](CC(N)=O)C(=O)N[C@@H](Cc1ccc(O)cc1)C(=O)N1CCC[C@H]1C(=O)N[C@@H](C)C(=O)N[C@H](C(=O)O)[C@@H](C)CC [M11I] (H-IMYNYPAI-OH) | 29.1 | –
CC[C@H](C)[C@H](N)C(=O)N[C@@H](CCSC)C(=O)N[C@@H](Cc1ccc(O)cc1)C(=O)N[C@@H](CC(N)=O)C(=O)N[C@@H](Cc1ccc(O)cc1)C(=O)N1CCC[C@H]1C(=O)N[C@H](C(=O)N[C@@H](CCSC)C(=O)O)[C@@H](C)O [A10T] (H-IMYNYPTM-OH) | 28.1 | –
MSQIMYNYPTMLGHAGDMAGYAGTLQSLGAEIAV | – | cleaved bond [2]: Y21-A22
